Among the data in patent publication US10184115B2, “Mutated cellobiose dehydrogenase with increased substrate specificity” (DIRECTSENS GMBH, priority 2012, dated 2019) are kcat and kcat/KM values, retold here.

This assay has as its target T1, Myriococcum thermophilum cellobiose dehydrogenase (CDH), recombinant wild type, SEQ ID NO: 1 (Thermothelomyces myriococcoides, UniProt A9XK88).
T1 sequence (A9XK88 22-828): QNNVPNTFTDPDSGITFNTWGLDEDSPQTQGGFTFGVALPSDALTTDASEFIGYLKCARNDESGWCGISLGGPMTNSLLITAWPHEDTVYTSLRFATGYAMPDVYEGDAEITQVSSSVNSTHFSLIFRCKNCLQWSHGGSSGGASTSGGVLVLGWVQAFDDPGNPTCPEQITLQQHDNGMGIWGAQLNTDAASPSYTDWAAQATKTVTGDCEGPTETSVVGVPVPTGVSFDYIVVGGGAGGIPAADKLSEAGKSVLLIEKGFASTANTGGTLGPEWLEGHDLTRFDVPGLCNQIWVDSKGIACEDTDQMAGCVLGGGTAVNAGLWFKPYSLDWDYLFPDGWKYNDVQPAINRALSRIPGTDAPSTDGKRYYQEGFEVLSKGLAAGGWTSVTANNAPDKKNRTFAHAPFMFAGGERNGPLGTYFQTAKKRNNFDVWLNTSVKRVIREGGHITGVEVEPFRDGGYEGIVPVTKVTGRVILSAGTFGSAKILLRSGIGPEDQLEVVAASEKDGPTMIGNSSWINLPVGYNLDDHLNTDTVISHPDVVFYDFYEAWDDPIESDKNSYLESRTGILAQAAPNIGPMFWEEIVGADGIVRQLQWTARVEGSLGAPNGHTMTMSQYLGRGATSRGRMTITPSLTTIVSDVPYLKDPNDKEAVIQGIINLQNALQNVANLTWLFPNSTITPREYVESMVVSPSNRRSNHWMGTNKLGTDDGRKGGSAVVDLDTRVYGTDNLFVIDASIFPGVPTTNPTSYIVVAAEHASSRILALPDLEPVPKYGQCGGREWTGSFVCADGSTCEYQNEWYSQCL
The assay can be described thus: Steady-state kinetics, DCIP assay: M. thermophilum CDH wt. It is filed as biochemical. Conditions: apparent, pH 4.5, 30° C. On the procedure:
Enzyme activity was assayed at 30° C. using either the DCIP (Karapetyan et al., 2005 Journal of Biotechnology 121: 34-48) or cytochrome c (Canevascini et al., 1991, European Journal of Biochemistry 198: 43-52) as electron acceptor. […] Stock solutions of carbohydrates used for kinetic measurements were prepared in the respective buffer and allowed to stand overnight for mutarotation, while stock solutions of electron acceptors were prepared in water and immediately used. The reaction stoichiometry is 1 for the two-electron acceptor DCIP (1 mole of DCIP reduced per mole of carbohydrate oxidized), but 2 for the one-electron acceptor cytochrome c. Kinetic constants were calculated by fitting the observed data to the Henri-Michaelis-Menten equation or to the adapted model for substrate inhibition using nonlinear least-squares regression and the program SigmaPlot (Systat Software, San Jose, Calif., USA). […]
Recombinant wild-type CDH as well as variants were produced in 1 L baffled flasks. […] Increase in activity was monitored using the DCIP and the cytochrome c enzyme assays. […]
The sample was loaded on a 20 mL PHE Sepharose FF column (HR26/20) equilibrated with 50 mM Na-acetate buffer pH 5.5 containing 20% ammonium sulfate. […] Fractions were tested for CDH activity and pooled according to the highest Reinheitszahl (RZ, calculated from the absorbance ratio 420 nm/280 nm). […]

Usually kcat stands for the maximal rate divided by the concentration of active sites. For orientation: kcat/KM means the second-order rate constant that governs catalysis at low substrate concentration. Turning to `OC[C@H]1OC(O)[C@H](O)[C@@H](O)[C@@H]1O` (some centres unmarked) [Glucose, glucose], the kcat came to 4.8 s⁻¹ and the kcat/KM was determined as 12 M⁻¹ s⁻¹.
